Measurements: ChEMBL document CHEMBL1141962, “Angiogenesis inhibitors derived from thalidomide” (2005)

What was measured:
Assay type in all cases: functional
Settings in all cases: Homo sapiens
HUVEC [1] = assay: Inhibitory activity in HUVEC tube formation assay at 100 uM
HUVEC [2] = assay: Inhibitory activity in HUVEC tube formation assay at 30 uM
HUVEC [3] = assay: Inhibitory activity in HUVEC tube formation assay at 10 uM

SMILES | inhibition at 100 µM (HUVEC [1]) [%] | inhibition at 30 µM (HUVEC [2]) [%] | inhibition at 10 µM (HUVEC [3]) [%]
O=C1CCC(N2C(=O)c3ccccc3C2=O)C(=O)N1 (configuration not stated) [THALIDOMIDE] | 26 |  | 
Nc1cccc2c1CN(C1CCC(=O)NC1=O)C2=O (configuration not stated) [LENALIDOMIDE] | 32 |  | 
Nc1cccc2c1C(=O)N(C1CCC(=O)NC1=O)C2=O (configuration not stated) [POMALIDOMIDE] | 21 |  | 
O=C1CCC(N2C(=O)c3cccc([N+](=O)[O-])c3C2=O)C(=O)N1 (configuration not stated) | 32 |  | 
CC(C)c1cccc(C(C)C)c1N1C(=O)c2ccc(O)cc2C1=O | 59 | 41 | 8
